Reference: patent US20050154037A1, “Methods of using zonisamide as an adjunctive therapy for partial seizures” (Eisai Co., Ltd., priority 2004, published 2005)

How the values were obtained:
[1] = parameters: species or system patients; details: human, in vivo
Excerpt: The pharmacovigilance data that were collected, reviewed and analyzed provided the following information in respect of the incidence of NMS. To date, a total of 3 cases (two adult and one pediatric) fulfill the criteria of potential neuroleptic malignant syndrome. These cases were reviewed in detail for evaluation of possible safety signals. They were all deemed serious, and in all cases, the patients recovered with appropriate treatment.
Cases ZON1000813 and ZON1000929 are adult cases from Japan. In both cases the patients carried a diagnosis of Parkinson's disease (PD) and were enrolled in a double blind, placebo controlled […] study of zonisamide as a potential treatment for PD (Protocol AD81 ON-202-1). […]
Estimates of exposure, based upon retail and mail order prescriptions, indicate that the number of unique patients taking zonisamide capsules in the U.S. is about 37,276 (total prescriptions per year/average number of prescriptions per patient per year less a calculated percentage decrease based on estimated annual dropouts) in the time between approval in 2000 and December 2002. […] Similarly, the incidences of NMS estimated herein are unlikely to be higher than calculated. Based on the exposure data and number of NMS cases, the incidence of NMS in the U.S. and Japan is calculated to be about 1:37,276 unique patients and 1:592,588 unique patients, respectively.

[2] = NMS case reports: onset of symptoms after cessation of zonisamide therapy; assay type: in vivo, patients; details: person with Parkinson's Disease
Excerpt: Cases ZON1000813 and ZON1000929 are adult cases from Japan. In both cases the patients carried a diagnosis of Parkinson's disease (PD) and were enrolled in a double blind, placebo controlled […] study of zonisamide as a potential treatment for PD (Protocol AD81 ON-202-1). In both cases the development of NMS appeared after the withdrawal of zonisamide (from 2 days to 14 days, respectively). In the former case, the study blind was broken, and the patient was documented to be on study medication (zonisamide), while in the second case, the blind was not broken. Case ZON1000926 is a spontaneous pediatric case from the US. In all of these cases there were weak or no confounding factors present.
A person carried a diagnosis of Parkinson's Disease (PD). The patient was enrolled in a double-blind, placebo controlled Phase II study designed to assess the potential utility of zonisamide in the treatment of PD. The patient's symptoms of NMS appeared 2 days after cessation of zonisamide therapy. Patients with PD are known to be at a rare, but increased risk for NMS. But NMS can occur spontaneously. See Ueda, et al., Neurology, Vol. 52, pp. 777-781, 1999.
A person carried a diagnosis of Parkinson's Disease (PD). The patient was enrolled in a double-blind, placebo controlled Phase II study designed to assess the potential utility of zonisamide in the treatment of PD. […]

sodium channels = details: in vitro; cited from earlier work
[3] = test system: voltage-dependent, transient inward currents (T-type Ca^2+ currents); details: in vitro; cited from earlier work
[4] = test system: GABA/benzodiazepine receptor ionophore complex; details: cited from earlier work
[5] = test system: cultured mouse spinal cord neurons; details: 10-30 μg/mL, cited from earlier work
rat hippocampal slices = details: 10-30 μg/mL; cited from earlier work
[6] = test system: dopaminergic and serotonergic neurotransmission; details: in vivo microdialysis; cited from earlier work
hepatic enzyme = details: cited from earlier work
carbonic anhydrase = details: relative to acetazolamide; called weak; cited from earlier work

**Q.** Which results are given for `NS(=O)(=O)Cc1noc2ccccc12` [zonisamide, 1,2-benzisoxazole-3-methanesulfonamide]?
**A.** cases that fulfill the criteria of potential neuroleptic malignant syndrome [1]: 3 cases; incidence of NMS [1]: about 1:37,276 unique patients; appearance of NMS symptoms after cessation of zonisamide therapy ([2]; Phase II study (Example 1)): 2 days; appearance of NMS symptoms after cessation of study medication ([2]; Phase II study, blind not broken (Example 2)): 14 days; effect on sodium channels (sodium channels): blocks sodium channels; effect on voltage-dependent, transient inward currents (T-type Ca2+ currents) [3]: reduces; changes in chloride flux [4]: does not produce changes in chloride flux; binding to the GABA/benzodiazepine receptor ionophore complex ([4]; in an allosteric fashion): binds; synaptically-driven electrical activity [5]: suppresses; postsynaptic GABA or glutamate responses ([5]; cultured mouse spinal cord neurons): without affecting; neuronal or glial uptake of [3H]-GABA (rat hippocampal slices): without affecting; dopaminergic and serotonergic neurotransmission [6]: facilitates; hepatic enzyme induction (hepatic enzyme): not known to be a hepatic enzyme inducer; carbonic anhydrase inhibition compared to acetazolamide (carbonic anhydrase): 1/50
